# In patent US5538968A, “Geneserine derivatives processes as cholinesterase inhibitors” (priority 1991, dated 1996):
# Structures can show the parent of a compound that is named as a salt.
# Tested on: acetylcholinesterase (AchE) in the brain
# Assay: Time course of inhibition of brain acetylcholinesterase (AchE) in the rat after s.c. administration (Ellman acetylthiocholine method, ex vivo)
# Design: species or system rat (male Crl:CD (SD) BR)
# Conditions: for Time of peak effect on brain AchE: at doses producing effects comparable to 9 mg/kg CHF 2060
# Method: 1. Acetylcholinesterase inhibition
# The time course of inhibition of acetylcholinesterase (AchE) in the brain was assessed in male Crl:CD (SD) BR rats (Charles River Italia), weighing between 150-250 g.
# The test substances were administered by s.c. route, dissolved in 2 ml/kg of sterile saline. 9 animals/group/time were used.
# Controls received the vehicle only.
# At various intervals (10-60-120-240 min) after administration the rats were sacrificed by decapitation and the brains were rapidly removed, weighed and immediately placed in 1 ml of phosphate buffer 0.1M, pH 8.0, added with 1% Triton 100 (Merck).
# After homogenization and centrifugation at 19943 g for 15 min at 4° C. the surnatant was separated and used for the determination of AchE activity according to the acetyltiocholine method described by Ellmann (Ellman G. L. et al., Biochem. Pharmacol. 7, 88, 1961).
# The activity concentrations obtained (U/l surnatant) were individually corrected for the brain weight.
structure (smiles),measurement,setting,value
"CCCCCCCNC(=O)Oc1ccc2c(c1)C1(C)CCN(C)OC1N2C [CHF 2060, N-heptyl-geneserine L-tartrate]",AUC 0-4 h of inhibition of brain acetylcholinesterase,9 mg/kg s.c.,127 % inib. hr
same,Max % inhib. of brain acetylcholinesterase,9 mg/kg s.c.,45%
same,T max (time of the maximal inhibition),9 mg/kg s.c.,≥ 4 h
same,Brain acetylcholinesterase % inhib.,"9 mg/kg s.c., 10 min",11%
same,"Brain acetylcholinesterase activity, U/1 surn.","9 mg/kg s.c., 10 min",3094 ± 197 U/1 surn.
same,"Brain acetylcholinesterase activity, U/1 surn.","9 mg/kg s.c., 60 min",2294 ± 150 U/1 surn.
same,Brain acetylcholinesterase % inhib.,"9 mg/kg s.c., 60 min, ** P < 0.01",29%
same,"Brain acetylcholinesterase activity, U/1 surn.","9 mg/kg s.c., 120 min",2205 ± 171 U/1 surn.
same,Brain acetylcholinesterase % inhib.,"9 mg/kg s.c., 120 min, ** P < 0.01",33%
same,"Brain acetylcholinesterase activity, U/1 surn.","9 mg/kg s.c., 240 min",1565 ± 80 U/1 surn.
same,Brain acetylcholinesterase % inhib.,"9 mg/kg s.c., 240 min, ** P < 0.01",45%
same,AUC 0-4 h of inhibition of brain acetylcholinesterase,27 mg/kg s.c.,190 % inib. hr
same,Max % inhib. of brain acetylcholinesterase,27 mg/kg s.c.,68%
same,T max (time of the maximal inhibition),27 mg/kg s.c.,≥ 4 h
same,Factor of increase of effect between 120 and 240 min,"27 mg/kg s.c., 120 to 240 min",1.4
same,Brain acetylcholinesterase % inhib.,"27 mg/kg s.c., 10 min",12%
same,"Brain acetylcholinesterase activity, U/1 surn.","27 mg/kg s.c., 10 min",3070 ± 117 U/1 surn.
same,"Brain acetylcholinesterase activity, U/1 surn.","27 mg/kg s.c., 60 min",1782 ± 164 U/1 surn.
same,Brain acetylcholinesterase % inhib.,"27 mg/kg s.c., 60 min, ** P < 0.01",45%
same,"Brain acetylcholinesterase activity, U/1 surn.","27 mg/kg s.c., 120 min",1629 ± 38 U/1 surn.
same,Brain acetylcholinesterase % inhib.,"27 mg/kg s.c., 120 min, ** P < 0.01",50%
same,"Brain acetylcholinesterase activity, U/1 surn.","27 mg/kg s.c., 240 min",914 ± 26 U/1 surn.
same,Brain acetylcholinesterase % inhib.,"27 mg/kg s.c., 240 min, ** P < 0.01",68%
same,Inhibition of brain AchE (qualitative),s.c.,long-lasting inhibitor of brain AchE
same,Course of effect during the 4 hrs following the treatment,"s.c., 0-4 hrs",increase gradually during the 4 hrs following the treatment
same,Duration of action compared with Heptyl physostigmine tartrate,"s.c., 27 mg/kg vs 1 mg/kg HPYS, similar AUC",more sustained action
same,Significant inhibition of brain AchE,"s.c., 1 hr after administration (9 and 27 mg/kg), P<0,001",29-45%
same,Factor of increase of effect within 4 hrs in respect to the first hour,"s.c., 4 hrs vs 1 hr (9 and 27 mg/kg)",1.5-1.6
CNC(=O)Oc1ccc2c(c1)C1(C)CCN(C)OC1N2C (stereo not drawn) [Geneserine tartrate],AUC 0-4 h of inhibition of brain acetylcholinesterase,3 mg/kg s.c.,133 % inib. hr
same,Max % inhib. of brain acetylcholinesterase,3 mg/kg s.c.,53-57%
same,T max (time of the maximal inhibition),3 mg/kg s.c.,0.167 to 1 h
same,"Brain acetylcholinesterase activity, U/1 surn.","3 mg/kg s.c., 10 min",1447 ± 100 U/1 surn.
same,Brain acetylcholinesterase % inhib.,"3 mg/kg s.c., 10 min, ** P < 0.01",53%
same,"Brain acetylcholinesterase activity, U/1 surn.","3 mg/kg s.c., 60 min",1231 ± 86 U/1 surn.
same,Brain acetylcholinesterase % inhib.,"3 mg/kg s.c., 60 min, ** P < 0.01",57%
same,"Brain acetylcholinesterase activity, U/1 surn.","3 mg/kg s.c., 120 min",2162 ± 134 U/1 surn.
same,Brain acetylcholinesterase % inhib.,"3 mg/kg s.c., 120 min, ** P < 0.01",28%
same,Brain acetylcholinesterase % inhib.,"3 mg/kg s.c., 240 min",12%
same,"Brain acetylcholinesterase activity, U/1 surn.","3 mg/kg s.c., 240 min",2139 ± 208 U/1 surn.
same,Factor of reduction of effect 120 min. after the treatment,"s.c., 120 min vs peak",1.5-2
same,Effect on brain AchE after 240 min.,s.c.,disappears after 240 min
same,Time of peak effect on brain AchE,s.c.,10 to 60 min
same,Onset of effect compared with CHF 2060,"s.c., vs 9 mg/kg CHF 2060, comparable AUC and maximum inhibition",more rapid effect
CCCCCCCNC(=O)Oc1ccc2c(c1)[C@]1(C)CCN(C)[C@@H]1N2C [Heptyl physostigmine tartrate],AUC 0-4 h of inhibition of brain acetylcholinesterase,0.3 mg/kg s.c.,94 % inib. hr
same,AUC 0-4 h of inhibition of brain acetylcholinesterase,1 mg/kg s.c.,178 % inib. hr
same,Max % inhib. of brain acetylcholinesterase,1 mg/kg s.c.,54%
same,T max (time of the maximal inhibition),1 mg/kg s.c.,1 h
same,Factor of reduction of effect between 120 and 240 min,"1 mg/kg s.c., 120 to 240 min",1.4
same,"Brain acetylcholinesterase activity, U/1 surn.","1 mg/kg s.c., 10 min",2246 ± 115 U/1 surn.
same,Brain acetylcholinesterase % inhib.,"1 mg/kg s.c., 10 min, ** P < 0.01",29%
same,"Brain acetylcholinesterase activity, U/1 surn.","1 mg/kg s.c., 60 min",1166 ± 85 U/1 surn.
same,Brain acetylcholinesterase % inhib.,"1 mg/kg s.c., 60 min, ** P < 0.01",54%
same,"Brain acetylcholinesterase activity, U/1 surn.","1 mg/kg s.c., 120 min",1506 ± 115 U/1 surn.
same,Brain acetylcholinesterase % inhib.,"1 mg/kg s.c., 120 min, ** P < 0.01",52%
same,"Brain acetylcholinesterase activity, U/1 surn.","1 mg/kg s.c., 240 min",1867 ± 52 U/1 surn.
same,Brain acetylcholinesterase % inhib.,"1 mg/kg s.c., 240 min, ** P < 0.01",36%
CNC(=O)Oc1ccc2c(c1)[C@]1(C)CCN(C)[C@@H]1N2C [Physostigmine],AUC 0-4 h of inhibition of brain acetylcholinesterase,0.4 mg/kg s.c.,135 % inib. hr
same,"Brain acetylcholinesterase activity, U/1 surn.","0.4 mg/kg s.c., 10 min",1368 ± 125 U/1 surn.
same,"Brain acetylcholinesterase activity, U/1 surn.","0.4 mg/kg s.c., 60 min",1483 ± 148 U/1 surn.
same,"Brain acetylcholinesterase activity, U/1 surn.","0.4 mg/kg s.c., 120 min",1829 ± 94 U/1 surn.
same,"Brain acetylcholinesterase activity, U/1 surn.","0.4 mg/kg s.c., 240 min",2234 ± 151 U/1 surn.
same,Effect on brain AchE after 240 min.,s.c.,disappears after 240 min
same,Time of peak effect on brain AchE,s.c.,10 to 60 min
